Reference: ChEMBL document CHEMBL5726932, “Cyclopropanecarboxylic acid GPR120 modulators” (2018)

Molecular target: T1, Free fatty acid receptor 4 (Homo sapiens, UniProt Q5NUL3)
T1 sequence (Q5NUL3 whole entry): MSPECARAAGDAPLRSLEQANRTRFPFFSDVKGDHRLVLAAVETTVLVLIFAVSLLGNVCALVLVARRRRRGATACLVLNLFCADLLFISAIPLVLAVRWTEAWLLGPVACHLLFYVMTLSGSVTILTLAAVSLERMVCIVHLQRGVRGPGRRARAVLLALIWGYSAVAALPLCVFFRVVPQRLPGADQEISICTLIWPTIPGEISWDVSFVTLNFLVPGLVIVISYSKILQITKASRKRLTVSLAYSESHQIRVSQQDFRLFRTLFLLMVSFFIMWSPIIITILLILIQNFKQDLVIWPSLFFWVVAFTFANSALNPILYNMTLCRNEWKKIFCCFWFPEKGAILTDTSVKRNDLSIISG
Experiment: GPR120 pERK assay: For the pERK assay, 3×10^6 cells/mL cryopreserved human and mouse cells were thawed rapidly in a 37° C. water bath and added to a T-225 flask containing 50 mL growth medium. The flasks were placed in a tissue culture incubator overnight (37° C., 5% CO2). The next day, cells were harvested with trypsin (Gibco Cat. #25300-054), resuspended in serum-containing growth medium and counted using a Cellometer and volume adjusted to a concentration of 0.5×10^6 cells/mL. Cells were plated into 384-well clear bottom tissue culture plates (BD Cat. #353962) at 50 μL/well, for a density of 25,000 cells/well using a MULTIDROP® and incubated for 16-18 hours (overnight) at 37° C. with 5% CO2. The next day, cells were washed once with 50 μL of PBS without Ca++/Mg++ (Gibco Cat. #14190-036) and serum starved in 25 μL of F-12 media without any serum or antibiotics for 2 hours at 37° C.Test compounds were 3-fold, 11-point serially diluted in DMSO in a REMP assay plate (Matrix Cat. #4307) by Tecan and 5 μL was transferred into an ECHO source plate (Labcyte Cat. #LC-0200). Cells were then stimulated with 40 nL of compound dilutions using ECHO liquid handler for 7 min at 37° C. […]

EC50 [µM]	Structure (SMILES)
1.7	O=C(O)C1CC1COc1ccc(-c2cccc(-c3ccccc3)c2)cc1 (configuration not stated)
6.84	O=C(O)C1CC1COc1ccc(-c2ccccc2-c2ccccc2)cc1 (configuration not stated)
